Measurements published in ChEMBL document CHEMBL3885881, “DrugMatrix”.

Species on record: Rattus norvegicus
Assay: DrugMatrix - Regimen: Daily Repeat
Type: toxicity, organism-based, Sprague-Dawley
Parameters: regimen Daily Repeat, gender Male, age 6-8 weeks
Details: in vivo, po, route oral GAVAGE, vehicle .5 % CMC; for BASOPHIL / EOSINOPHIL / ERYTHROCYTE COUNT / HEMATOCRIT / HEMOGLOBIN / LYMPHOCYTE / MEAN CORPUSCULAR HEMOGLOBIN / MEAN CORPUSCULAR HEMOGLOBIN CONCENTRATION / MEAN CORPUSCULAR VOLUME / MONOCYTE / NEUTROPHIL / PLATELET COUNT: tissue Blood; for ALANINE AMINOTRANSFERASE / ALBUMIN / ALKALINE PHOSPHATASE / ASPARTATE AMINOTRANSFERASE / BLOOD UREA NITROGEN / CHLORIDE / CHOLESTEROL / CREATINE PHOSPHOKINASE / CREATININE / GLUCOSE / PHOSPHORUS / POTASSIUM / SODIUM / TOTAL BILIRUBIN / TOTAL PROTEIN: tissue Plasma
[1] = 0 mg/kg, 72 h, dose level Control, time 3 day
[2] = 0 mg/kg, 120 h, dose level Control, time 5 day
[3] = 10 mg/kg, 72 h, dose level Low, time 3 day
[4] = 10 mg/kg, 120 h, dose level Low, time 5 day
[5] = 750 mg/kg, 72 h, dose level High, time 3 day
[6] = 750 mg/kg, 120 h, dose level High, time 5 day

Which results are given for `OCCN(CCO)c1nc(N2CCCCC2)c2nc(N(CCO)CCO)nc(N3CCCCC3)c2n1` [DIPYRIDAMOLE]?
BASOPHIL [1]: 0%; EOSINOPHIL [1]: 0%; ERYTHROCYTE COUNT [1]: 6.34 x10E6/uL; HEMATOCRIT [1]: 37.62%; HEMOGLOBIN [1]: 14.82 G/DL; LYMPHOCYTE [1]: 87.5%; MEAN CORPUSCULAR HEMOGLOBIN [1]: 23.48 pg; MEAN CORPUSCULAR HEMOGLOBIN CONCENTRATION [1]: 39.5 G/DL; MEAN CORPUSCULAR VOLUME [1]: 59.45 fL; MONOCYTE [1]: 1.67%; NEUTROPHIL [1]: 10.83%; PLATELET COUNT [1]: 1074.83 x10E3/uL; ALANINE AMINOTRANSFERASE [1]: 36.5 u/L; ALBUMIN [1]: 3.9 G/DL; ALKALINE PHOSPHATASE [1]: 370.17 u/L; ASPARTATE AMINOTRANSFERASE [1]: 63.17 u/L; BLOOD UREA NITROGEN [1]: 16.83 mg/dL; CHLORIDE [1]: 99.33 MEQ/L; CHOLESTEROL [1]: 64.33 mg/dL; CREATINE PHOSPHOKINASE [1]: 127 u/L; CREATININE [1]: 0.55 mg/dL; GLUCOSE [1]: 173.5 mg/dL; PHOSPHORUS [1]: 10.08 mg/dL; POTASSIUM [1]: 6.23 MEQ/L; SODIUM [1]: 143.5 MEQ/L; TOTAL BILIRUBIN [1]: 0.52 mg/dL; TOTAL PROTEIN [1]: 6.35 G/DL; BASOPHIL [2]: 0%; EOSINOPHIL [2]: 0.17%; ERYTHROCYTE COUNT [2]: 6.12 x10E6/uL; HEMATOCRIT [2]: 37.08%; HEMOGLOBIN [2]: 14.82 G/DL; LYMPHOCYTE [2]: 83.33%; MEAN CORPUSCULAR HEMOGLOBIN [2]: 24.25 pg; MEAN CORPUSCULAR HEMOGLOBIN CONCENTRATION [2]: 39.97 G/DL; MEAN CORPUSCULAR VOLUME [2]: 60.65 fL; MONOCYTE [2]: 1.5%; NEUTROPHIL [2]: 15%; PLATELET COUNT [2]: 1042.83 x10E3/uL; ALANINE AMINOTRANSFERASE [2]: 46 u/L; ALBUMIN [2]: 3.82 G/DL; ALKALINE PHOSPHATASE [2]: 369.5 u/L; ASPARTATE AMINOTRANSFERASE [2]: 65 u/L; BLOOD UREA NITROGEN [2]: 16.33 mg/dL; CHLORIDE [2]: 100.67 MEQ/L; CHOLESTEROL [2]: 57.17 mg/dL; CREATINE PHOSPHOKINASE [2]: 130 u/L; CREATININE [2]: 0.53 mg/dL; GLUCOSE [2]: 163.33 mg/dL; PHOSPHORUS [2]: 9.53 mg/dL; POTASSIUM [2]: 6.27 MEQ/L; SODIUM [2]: 144.83 MEQ/L; TOTAL BILIRUBIN [2]: 0.55 mg/dL; TOTAL PROTEIN [2]: 6.32 G/DL; BASOPHIL [3]: 0%; EOSINOPHIL [3]: 0.33%; ERYTHROCYTE COUNT [3]: 6.75 x10E6/uL; HEMATOCRIT [3]: 39.77%; HEMOGLOBIN [3]: 15.7 G/DL; LYMPHOCYTE [3]: 90.67%; MEAN CORPUSCULAR HEMOGLOBIN [3]: 23.23 pg; MEAN CORPUSCULAR HEMOGLOBIN CONCENTRATION [3]: 39.53 G/DL; MEAN CORPUSCULAR VOLUME [3]: 58.8 fL; MONOCYTE [3]: 0.33%; NEUTROPHIL [3]: 8.67%; PLATELET COUNT [3]: 1406 x10E3/uL; ALANINE AMINOTRANSFERASE [3]: 42.67 u/L; ALBUMIN [3]: 4.03 G/DL; ALKALINE PHOSPHATASE [3]: 406.33 u/L; ASPARTATE AMINOTRANSFERASE [3]: 71.33 u/L; BLOOD UREA NITROGEN [3]: 15.67 mg/dL; CHLORIDE [3]: 100.33 MEQ/L; CHOLESTEROL [3]: 71 mg/dL; CREATINE PHOSPHOKINASE [3]: 229.67 u/L; CREATININE [3]: 0.53 mg/dL; GLUCOSE [3]: 148.67 mg/dL; PHOSPHORUS [3]: 11.33 mg/dL; POTASSIUM [3]: 6.33 MEQ/L; SODIUM [3]: 144.33 MEQ/L; TOTAL BILIRUBIN [3]: 0.27 mg/dL; TOTAL PROTEIN [3]: 6.57 G/DL; BASOPHIL [4]: 0%; EOSINOPHIL [4]: 0.5%; ERYTHROCYTE COUNT [4]: 6.79 x10E6/uL; HEMATOCRIT [4]: 39%; HEMOGLOBIN [4]: 15.6 G/DL; LYMPHOCYTE [4]: 87%; MEAN CORPUSCULAR HEMOGLOBIN [4]: 23 pg; MEAN CORPUSCULAR HEMOGLOBIN CONCENTRATION [4]: 40.05 G/DL; MEAN CORPUSCULAR VOLUME [4]: 57.45 fL; MONOCYTE [4]: 0.5%; NEUTROPHIL [4]: 12%; PLATELET COUNT [4]: 1171.5 x10E3/uL; ALANINE AMINOTRANSFERASE [4]: 35 u/L; ALBUMIN [4]: 3.8 G/DL; ALKALINE PHOSPHATASE [4]: 332.33 u/L; ASPARTATE AMINOTRANSFERASE [4]: 57 u/L; BLOOD UREA NITROGEN [4]: 15 mg/dL; CHLORIDE [4]: 100.67 MEQ/L; CHOLESTEROL [4]: 70.33 mg/dL; CREATINE PHOSPHOKINASE [4]: 146.33 u/L; CREATININE [4]: 0.6 mg/dL; GLUCOSE [4]: 207 mg/dL; PHOSPHORUS [4]: 11.67 mg/dL; POTASSIUM [4]: 5.6 MEQ/L; SODIUM [4]: 143.67 MEQ/L; TOTAL BILIRUBIN [4]: 0.43 mg/dL; TOTAL PROTEIN [4]: 6.33 G/DL; BASOPHIL [5]: 0%; EOSINOPHIL [5]: 0.33%; ERYTHROCYTE COUNT [5]: 6.25 x10E6/uL; HEMATOCRIT [5]: 37.2%; HEMOGLOBIN [5]: 14.47 G/DL; LYMPHOCYTE [5]: 88.33%; MEAN CORPUSCULAR HEMOGLOBIN [5]: 23.2 pg; MEAN CORPUSCULAR HEMOGLOBIN CONCENTRATION [5]: 38.9 G/DL; MEAN CORPUSCULAR VOLUME [5]: 59.57 fL; MONOCYTE [5]: 1%; NEUTROPHIL [5]: 10.33%; PLATELET COUNT [5]: 1166.33 x10E3/uL; ALANINE AMINOTRANSFERASE [5]: 38 u/L; ALBUMIN [5]: 3.6 G/DL; ALKALINE PHOSPHATASE [5]: 276.67 u/L; ASPARTATE AMINOTRANSFERASE [5]: 56.33 u/L; BLOOD UREA NITROGEN [5]: 13.33 mg/dL; CHLORIDE [5]: 99 MEQ/L; CHOLESTEROL [5]: 75.67 mg/dL; CREATINE PHOSPHOKINASE [5]: 140 u/L; CREATININE [5]: 0.53 mg/dL; GLUCOSE [5]: 163.67 mg/dL; PHOSPHORUS [5]: 11.63 mg/dL; POTASSIUM [5]: 6.2 MEQ/L; SODIUM [5]: 143 MEQ/L; TOTAL BILIRUBIN [5]: 0.3 mg/dL; TOTAL PROTEIN [5]: 5.77 G/DL; BASOPHIL [6]: 0%; EOSINOPHIL [6]: 0%; ERYTHROCYTE COUNT [6]: 6.47 x10E6/uL; HEMATOCRIT [6]: 38.13%; HEMOGLOBIN [6]: 15 G/DL; LYMPHOCYTE [6]: 90.33%; MEAN CORPUSCULAR HEMOGLOBIN [6]: 23.2 pg; MEAN CORPUSCULAR HEMOGLOBIN CONCENTRATION [6]: 39.33 G/DL; MEAN CORPUSCULAR VOLUME [6]: 58.97 fL; MONOCYTE [6]: 0.33%; NEUTROPHIL [6]: 9.33%; PLATELET COUNT [6]: 1245.33 x10E3/uL; ALANINE AMINOTRANSFERASE [6]: 40 u/L; ALBUMIN [6]: 3.73 G/DL; ALKALINE PHOSPHATASE [6]: 320.33 u/L; ASPARTATE AMINOTRANSFERASE [6]: 55 u/L; BLOOD UREA NITROGEN [6]: 13.33 mg/dL; CHLORIDE [6]: 98.33 MEQ/L; CHOLESTEROL [6]: 72 mg/dL; CREATINE PHOSPHOKINASE [6]: 136.67 u/L; CREATININE [6]: 0.57 mg/dL; GLUCOSE [6]: 158 mg/dL; PHOSPHORUS [6]: 10.37 mg/dL; POTASSIUM [6]: 6.03 MEQ/L; SODIUM [6]: 144 MEQ/L; TOTAL BILIRUBIN [6]: 0.4 mg/dL; TOTAL PROTEIN [6]: 5.97 G/DL
